Publication PMC12455130, “Multifunctional molecular agent for tau-targeted combinational therapy of Alzheimer’s disease” (The Journal of Biological Chemistry, 2025)

Key:
SK-N-SH cells = assay: Cell rescue assay (CCK-8) against R3 aggregates / Cu2+; format: cell-based, human; details: R3, heparin, Cu2+ preincubated with compound (20 μM), diluted 1:1, 24 h
Description: In this regard, we next evaluated the detoxification effect of 4GA and 2GA in the SK-N-SH cells treated with different components with possible cytotoxicity, including R3, R3 aggregates (R3 + heparin), Cu^2+, 4GA, 2GA, GA, and 4ME in indicated conditions, as shown in Figure 6B.
For cell rescue assay, 30 μM R3, 7.5 μM heparin was incubated in FBS–DMEM containing 7.5 μM Cu^2+ and different compounds (20 μM) at 37 °C for 1 h. Then, 500 μl of preincubated R3 solution was diluted with 500 μl fresh FBS–DMEM, and the mixture was used to replace the old medium after the cell attached to the 96-well plate. After cultured for 24 h, CCK-8 was used to measure the cell viability.

tau peptide R3 [1] = molecular target: T1, tau peptide R3 (Homo sapiens, UniProt P10636); assay: ThS assay, heparin-induced R3 aggregation (kinetics and dose-response); format: biochemical; details: for IC50: 3 h at 37 °C, ThS fluorescence; for inhibition of R3 assembly (ThS kinetics): 5, 10 and 40 μM, 15 μM R3, heparin
T1 construct: R3 (^306VQIVYK PVDLSK VTSKCG SLGNIH HKPGGG Q^336) and rabbit anti-tau antibody were purchased from MuJin; purchased MuJin
Description: The inhibition effect of 4GA–2GA on R3 aggregation was explored by thioflavin S (ThS) assay ([24]). In general, the kinetics of R3 aggregation in the absence or the presence of 4GA, 2GA was assessed by measuring the emission intensity of ThS at 500 nm, which reflects the amount of R3 aggregates. As the control experiments, the aggregation kinetics of 4ME and GA were also carried out. While induced by heparin, R3 aggregates rapidly at 37 °C, and the fluorescence of ThS reaches a maximum after an average time of 200 s (Fig. 4A). Based on the aforementioned conditions, the inhibitory ability of our synthetic compounds at three different concentrations (5, 10, and 40 μM) was tested.
Next, the dose–response inhibitory effects of our synthetic compounds on R3 aggregation were investigated. The detailed experimental operation was descripted in ESI. […] The apparent values of IC50 were calculated according to the dose−response curve.
Tau peptide R3 was adjusted to a concentration of 15 μM using 50 mM Tris−HCl buffer (pH 7.4), ThS (final concentration of 10 μM), and different amounts of 4GA, 2GA, 4ME, and GA (final concentration of 0, 5, 10, and 40 μM) as the aggregation inhibitor were added in1to the reaction mixture. Aggregation was induced by adding heparin to the solution (final concentration of 3.8 μM); the kinetics of each sample was immediately monitored by a fluorescence spectrophotometer with a 10-mm quartz cell at 440/500 nm (excitation/emission). A circulating water bath was necessary to maintain the temperature at 37 °C.
Tau peptide R3 was adjusted to a concentration of 15 μM using 50 mM Tris–HCl buffer (pH 7.4). Different amounts of 4GA, 2GA, 4ME, and GA (final concentration of 0, 1, 2, 4, 6, 10, 15, 20, 30, 40, 60, or 80 μM) as the aggregation inhibitors were added into the reaction mixture. Aggregation was induced by adding heparin to the solution (final concentration of 3.8 μM), After 3 h incubation at 37°C, ThS (final concentration of 10 μM) was added, and the fluorescence intensity at 440/500 nm (excitation/emission) was recorded on Hitachi F-7000 with a 10-mm quartz cell. The dose−response inhibitory effects of R3 aggregation were expressed by the aggregation percentage, which was calculated according to the following (Formula 4.3):(4.3) aggregation%=F-F0/Ft-F0×100
where F0 = fluorescence intensity of R3 monomer, Ft = fluorescence intensity of R3 aggregate, and F = fluorescence intensity of R3 aggregate in the presence of inhibitors. The IC50 values were also calculated according to the dose−response inhibitory effects.
Tau peptide R3 was adjusted to a concentration of 15 μM using Tris−HCl buffer (pH 7.4), and the synthetic compounds (4GA, 2GA, together with 4ME, GA as the comparison) at different concentrations, as aggregation inhibitor, were added into the reaction mixture separately. Aggregation was induced by heparin, and incubated at 37 °C for 3 h. By introducing fluorescence probe ThS, the dose−response inhibitory effects on R3 aggregation were recorded, according to normalized ThS fluorescence intensity (excitation: 440 nm, emission: 500 nm).
Figure S14. Inhibitory effects of N-substituted Azacrown on heparin-induced R3 aggregation, exermined by ThS fluorescence: 15 μM R3 and 3.8 μM heparin with cyclen, 1ME, 2ME, 3ME, and 4ME (80 μM) was incubated respectively at 37°C for 3h. 10 μM ThS was added to each of the solution, Spectra of ThS fluorescence were recorded at Ex440 nm.

tau peptide R3 [2] = molecular target: T1, tau peptide R3; assay: ThS assay, Cu2+-promoted heparin-induced R3 aggregation; format: biochemical; details: R3 15 μM, Cu2+ 3.8 μM, compound 10 μM, heparin 3.8 μM, 3 h
Text: Metal ions, especially Cu^2+, are believed to be highly compatible with cysteine residues of tau peptide as a coordination center ([26]). Accompanied by the formation of intermolecular S–Cu–S bridging coordination bond, or intermolecular disulfide bond, these metal ions have been proven to promote tau aggregation ([27]). After confirming that 4GA and 2GA can effectively remove copper ions through coordination, we further explore their effects on R3 aggregation under the promotion of Cu^2+. […] Heparin was used to initiate the aggregation ([15]). […] As a comparison, the effects of the precursor compounds: 4ME, 3ME, 2ME, and 1ME, on Cu^2+-promoted R3 aggregation were also examined (Fig. S15).
Figure 5 Kinetic curves and TEM image of R3 aggregation with 4GA or 2GA.A, kinetic curves of the R3 (15 μM) aggregation monitored by ThS fluorescence assay in different conditions. B, ThS fluorescence intensity of R3 (15 μM) incubated for 3 h in different conditions. C, TEM image of R3 fibrils in different conditions. Negatively stained with uranyl acetate. Scale bar represents 200 nm. Final concentrations of R3, Cu^2+, and inhibitors are 15, 3.8, and 10 μM, respectively. All aggregations were initiated by heparin (3.8 μM). 2GA, (4,10-dimethyl-1,4,7,10-tetraazacyclododecane-1,7-diyl)bis((3,4,5-trihydroxyphenyl)methanone); 4GA, (1,4,7,10-tetraazacyclododecane-1,4,7,10-tetrayl)tetrakis((3,4,5-trihydroxyphenyl)methanone); TEM, transmission electron microscopy; ThS, thioflavin S.
The promotion of Cu^2+ on R3 aggregation was also inspected, similar to the aforementioned operation, unless that 3.8 μM Cu^2+ was also included, and using 50 mM Hepes (pH 7.4) as the buffer solution.
Fig. S15 ThS fluorescence intensity of R3 (15 µM) incubated for 3 h. Final concentrations of R3, Cu^2+, and compounds are 15, 3.8 and 10 µM, respectively. All aggregations were initiated by heparin (3.8 µM).

T1 sequence (P10636 623-653 limits assumed): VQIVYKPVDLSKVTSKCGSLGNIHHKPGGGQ

| Structure (SMILES) | rescue of cell viability against R3 aggregates or Cu2+ (SK-N-SH cells) | IC50 (tau peptide R3 [1]; 15 μM R3, 3.8 μM heparin) | inhibition of R3 assembly (ThS kinetics) (tau peptide R3 [1]; 37 °C) | ThS fluorescence intensity of R3 aggregation in the presence of Cu2+ (tau peptide R3 [2]) | effect on heparin-induced R3 aggregation (ThS fluorescence at 500 nm) (tau peptide R3 [1]; 80 μM compound, 15 μM R3, 3.8 μM heparin, 37 °C, 3 h) |
| --- | --- | --- | --- | --- | --- |
| CN1CCN(C(=O)c2cc(O)c(O)c(O)c2)CCN(C)CCN(C(=O)c2cc(O)c(O)c(O)c2)CC1 [2GA, (4,10-dimethyl-1,4,7,10-tetraazacyclododecane-1,7-diyl)bis((3,4,5-trihydroxyphenyl)methanone)] | dramatically elevates the cell viability | 5.5 µM | strongly inhibited R3 assembly | dropped dramatically, to a level lower than the case of R3 aggregation in the absence of Cu^2+ |  |
| O=C(c1cc(O)c(O)c(O)c1)N1CCN(C(=O)c2cc(O)c(O)c(O)c2)CCN(C(=O)c2cc(O)c(O)c(O)c2)CCN(C(=O)c2cc(O)c(O)c(O)c2)CC1 [4GA, (1,4,7,10-tetraazacyclododecane-1,4,7,10-tetrayl)tetrakis((3,4,5-trihydroxyphenyl)methanone)] | dramatically elevates the cell viability | 3.8 µM | strongly inhibited R3 assembly | dropped dramatically, to a level lower than the case of R3 aggregation in the absence of Cu^2+ |  |
| CN1CCN(C)CCN(C)CCN(C)CC1 [4ME, 1,4,7,10-tetramethyl-1,4,7,10-tetraazacyclododecane, reference compound] | only a limited rescue ability |  |  | only to a level close to the case of R3 aggregation in the absence of Cu^2+ | did not hinder the aggregation of R3 peptides |
| O=C(O)c1cc(O)c(O)c(O)c1 [GA, gallic acid, reference compound] | only a limited rescue ability | > 80 µM |  |  |  |
